Several values for one entry are separate records, joined by “and”; a condition that tells them apart may be missing. Equal entries are not always repeated.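 Five concentrations, 48 hours, 96-well plates. At the GI50, growth is halved. The concentration for full growth arrest is given as TGI.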
Columns and labels:
Test in all cases: DTP human tumour cell line panel, 48 h
IGROV1 ovarian = system: IGROV1 ovarian
LOX IMVI melanoma = system: LOX IMVI melanoma
MCF7 breast = system: MCF7 breast
MDA-MB-231 breast = system: MDA-MB-231 breast
MDA-MB-435 = system: MDA-MB-435
MOLT-4 leukemia = system: MOLT-4 leukemia
NCI/ADR-RES ovarian = system: NCI/ADR-RES ovarian
RXF 393 renal = system: RXF 393 renal
SF-539 CNS = system: SF-539 CNS
SN12C renal = system: SN12C renal

Row | SMILES | GI50 (IGROV1 ovarian) | TGI (IGROV1 ovarian) | GI50 (LOX IMVI melanoma) | TGI (LOX IMVI melanoma) | GI50 (MCF7 breast) | TGI (MCF7 breast) | GI50 (MDA-MB-231 breast) | TGI (MDA-MB-231 breast) | GI50 (MDA-MB-435) | TGI (MDA-MB-435) | GI50 (MOLT-4 leukemia) | TGI (MOLT-4 leukemia) | GI50 (NCI/ADR-RES ovarian) | TGI (NCI/ADR-RES ovarian) | GI50 (RXF 393 renal) | TGI (RXF 393 renal) | GI50 (SF-539 CNS) | TGI (SF-539 CNS) | GI50 (SN12C renal) | TGI (SN12C renal)
1 | CCCCN(CCCC)CCCN=c1nc2c(c(N)n1-c1ccccc1)c(=S)n(-c1ccccc1)c(=S)n2-c1ccccc1 | 1.9 µM | 3.79 µM | 0.303 µM | 0.773 µM | 0.361 µM | 1.51 µM | 0.555 µM | 1.53 µM | 0.301 µM | 0.93 µM | 0.141 µM | > 34.1 µM | 2.09 µM | 4.12 µM | 1.96 µM | 4.75 µM | 1.36 µM | 2.84 µM | 1.41 µM | 2.79 µM
2 | C#CCNC(=O)CC[C@]1(C)[C@H]2CC[C@@H]3[C@@H]([C@@](C)(O)CCC=C(C)C)CC[C@@]3(C)[C@]2(C)CC[C@H]1C(=C)C | 10.2 µM | 25.4 µM | 9.73 µM | 27.4 µM | 24.7 µM | > 100 µM | 22.3 µM | 67.5 µM | 38.1 µM | > 100 µM | 17 µM | 47.3 µM | 40.5 µM | > 100 µM | 26.2 µM | 81.9 µM | 17.2 µM | 31.1 µM | 31.8 µM | > 100 µM
3 | OC(COc1cccc2ccccc12)CN1CCN(c2ccccc2)CC1 (stereo unspecified) | 14.6 µM | 29.5 µM | 15.8 µM | 31.1 µM | 17.3 µM | 31.9 µM | 15.8 µM | 31.8 µM | 15.5 µM | 30.5 µM | 16.3 µM | 56.3 µM | 15.4 µM | 30.4 µM | 18.2 µM | 32.9 µM | 18.1 µM | 33.9 µM | 16.4 µM | 31 µM
4 | CCOC(=O)C(=O)N=Nc1nc2c(O)c3ccccc3c(O)c2s1 | – | 14.6 µM | – | 3.88 µM | – | 30.4 µM | – | 12.7 µM | – | 3.15 µM | – | > 100 µM | – | 4.89 µM | – | 9.55 µM | – | 5.13 µM | – | 3.46 µM
5 | COc1ccc(/C=C\c2cc(OC)c(OC)c(OC)c2)cc1OC(=O)c1cccc(Cn2cc(CCOC(=O)c3cccc(Cn4nnc5c4C(=O)c4ccccc4C5=O)c3)nn2)c1 | 0.0252 µM | 26.4 µM | 0.0149 µM | > 100 µM | 0.0216 µM | > 70.5 µM | < 0.01 µM | 16.3 µM | < 0.01 µM | – | 0.0129 µM | > 100 µM | < 0.01 µM | 0.421 µM | < 0.01 µM | 13.6 µM | < 0.01 µM | 0.134 µM | < 0.0173 µM | > 100 µM
6 | COc1ccc(-c2nn(-c3cccc(NC(=O)Nc4cc(C(F)(F)F)cc(C(F)(F)F)c4)c3)cc2-c2ccncc2)cc1Cl | 2.08 µM | 31.6 µM | 1.51 µM | 5.64 µM | 1.01 µM | 5.98 µM | 0.85 µM | 2.12 µM | 0.959 µM | 3.12 µM | 1.2 µM | 4 µM | 1.25 µM | 13.3 µM | 0.849 µM | 2.4 µM | 0.88 µM | 2.25 µM | 1.27 µM | 7.95 µM
7 | C#COc1cccc(Nc2ncnc3ncc(NC(=O)CCl)cc23)c1 | – | > 26.1 µM | – | > 28 µM | > 16.6 µM | > 62.5 µM | > 27.3 µM | > 62.5 µM | > 49.8 µM | > 62.5 µM | – | > 62.5 µM | > 24.7 µM | > 62.5 µM | > 62.5 µM | > 62.5 µM | > 21.8 µM | > 53.2 µM | – | > 62.5 µM
8 | COc1cc([C@@H]2c3cc4c(cc3[C@@H](O[C@@H]3O[C@@H]5CO[C@@H](c6cccs6)O[C@H]5[C@H](O)[C@H]3O)[C@H]3COC(=O)[C@H]23)OCO4)cc(OC)c1O | – | 36.7 µM | 0.0969 µM | 2.26 µM | 0.0491 µM | > 100 µM | 1.56 µM | 7.43 µM | 1.15 µM | > 39.2 µM | 0.0313 µM | – | 19 µM | > 100 µM | 0.409 µM | 3.41 µM | 0.0972 µM | 0.432 µM | 0.166 µM | 2.73 µM
9 | COC(=O)Nc1nc2cc3c(cc2s1)OCCO3 | > 50 µM | > 50 µM | > 50 µM | > 50 µM | > 50 µM | > 50 µM | > 50 µM | > 50 µM | > 50 µM | > 50 µM | > 50 µM | > 50 µM | > 50 µM | > 50 µM | > 50 µM | > 50 µM | > 50 µM | > 50 µM | > 50 µM | > 50 µM
10 | C/C(=C\CCc1ccoc1)CC/C=C(\C)CCCN1CCC(CO)CC1 | 5.33 µM | 19 µM | 1.81 µM | 3.47 µM | 3.24 µM | 11.6 µM | 1.73 µM | 4.39 µM | 3.07 µM | 10.8 µM | 2.32 µM | 5.67 µM | 3.69 µM | 14.6 µM | 1.54 µM | 4.26 µM | 2.39 µM | 6.9 µM | 4.54 µM | 18.9 µM
11 | COc1cc2c3c(n(C)c(=O)c2cc1OC)-c1cc2c(cc1/C3=C\CCCBr)OCO2 | 28.5 µM | > 100 µM | 42 µM | > 100 µM | 16.2 µM | > 64.8 µM | 9.16 µM | > 45.3 µM | > 100 µM | > 100 µM | 21.4 µM | > 66.2 µM | – | > 100 µM | 6.35 µM | 16.8 µM | 10.3 µM | > 41.6 µM | > 100 µM | > 100 µM
12 | COc1ccc2c(=O)c3cc([N+](=O)[O-])ccc3n(C)c2c1 | – | > 100 µM | – | > 100 µM | – | > 100 µM | – | > 100 µM | – | > 100 µM | – | > 100 µM | – | > 100 µM | – | > 100 µM | – | > 100 µM | – | > 100 µM
13 | COc1c(CNC(=O)CCl)cc2[nH]c(C)cc2c1CNC(=O)CCl | 3.49 µM | > 100 µM | 3.17 µM | 31.8 µM | 2.81 µM | 20.9 µM | 6.12 µM | 41.3 µM | 5.2 µM | 36.4 µM | 5.19 µM | 83.8 µM | 56.1 µM | > 100 µM | 3.5 µM | 14.1 µM | 7.09 µM | 29.8 µM | 4.92 µM | 39.9 µM
14 | CC[C@H](C)n1cc(C)c2c(C(=O)NCc3c(C)cc(C)[nH]c3=O)cc(-c3ccc(N4CCNCC4)nc3)cc21 | 12.9 µM and 16.4 µM | 27.4 µM and 33.2 µM | 8.89 µM and 6.3 µM | 21.8 µM and 19.4 µM | 10.4 µM and 6.88 µM | 24.9 µM and 21.8 µM | 6.38 µM and 7 µM | 19.5 µM and 20.5 µM | 10 µM and 5.12 µM | 21.6 µM and 16.3 µM | 5.87 µM and 6.18 µM | 20.6 µM and 22 µM | 35.1 µM and 17.6 µM | > 100 µM and 33.7 µM | 9 µM and 7.71 µM | 23.7 µM and 23.2 µM | 15.1 µM and 13 µM | 28.5 µM and 26.7 µM | 13.8 µM and 13.7 µM | 27.9 µM and 28.6 µM
15 | Cc1cc(-c2nc(-c3ccc(OC(F)(F)F)cc3)no2)nn1Cc1ccnc(N2CCN(C3CC3)CC2)c1 | > 50 µM | > 100 µM | 0.272 µM | > 45.6 µM | – | > 42.7 µM | 12.6 µM | > 78.7 µM | 2.34 µM | > 59 µM | 3.73 µM | 84.8 µM | 0.726 µM | > 100 µM | > 27.9 µM | > 75.6 µM | > 33 µM | > 63.8 µM | > 34.1 µM | > 100 µM
16 | c1ccc(-c2nn(-c3ccccc3)[n+](-c3cccc4ccccc34)n2)cc1 | 1.59 µM | 40.8 µM | 1.23 µM | > 100 µM | 0.335 µM | 10.6 µM | 0.787 µM | 12.9 µM | 0.961 µM | 2.67 µM | 1.3 µM | 15.8 µM | > 100 µM | > 100 µM | 2.24 µM | 31.4 µM | 2.33 µM | 27.7 µM | 2.45 µM | > 100 µM
17 | Oc1cc(O)c2c(=S)cc(-c3ccc(Cl)cc3)oc2c1 | 0.533 µM | 16.5 µM | 2.92 µM | 11.6 µM | 0.111 µM | 11.4 µM | 2 µM | 6.54 µM | 3.41 µM | 14 µM | 3.76 µM | 34.2 µM | 2.8 µM | 10.7 µM | 3.15 µM | 12.5 µM | 3.31 µM | 17.1 µM | 2.78 µM | 11.1 µM
18 | C=C(C)[C@@H]1CCC2=C[C@@H](OC2=O)[C@@H](C(=C)C)C(=O)/C=C(/C)C(=O)C1 | 40.9 µM | > 100 µM | > 100 µM | > 100 µM | 35.3 µM | > 100 µM | 45.2 µM | > 100 µM | 38.8 µM | > 100 µM | 14 µM | 47 µM | 37 µM | > 100 µM | 22.4 µM | 53.3 µM | 36.5 µM | 95.4 µM | 28.6 µM | 77.3 µM
